Reference: patent US8722703B2, “Fused amino pyridines for the treatment of brain tumors” (Curis, Inc., priority 2009, dated 2014)

Columns and labels:
HSP90 = HSP90 (Homo sapiens, UniProt P07900); test: HSP90 competition binding (fluorescence polarization) assay
Text: (b) HSP90 Competition Binding (Fluorescence Polarization) Assay.
A fluorescein isothiocyanate (FITC) labeled GM was purchase from InvivoGen (ant-fgl-1). The interaction between HSP90 and labeled GM forms the basis for the fluorescence polarization assay. A free and fast-tumbling FITC labeled GM emits random light with respect to the plane of polarization plane of excited light, resulting in a lower polarization degree (mP) value. When GM is bound to HSP90, the complex tumble slower and the emitted light is polarized, resulting in a higher mP value. […] The assay buffer contained 20 mM HEPES (pH 7.3), 50 mM KCl, 1 mM DTT, 50 mM MgCl2, 20 mM Na2MoO4, 0.01% NP40 with 0.1 mg/ml bovine gamma-globulin.

[1] = Mouse brain concentrations after oral 30 mg/Kg in nude mice with U87MG xenografts; assay type: in vivo; conditions: oral (30 mg/Kg) delivery, U87MG xenografts; for concentration at 0 hr / concentration at 0.5 hr / concentration at 1 hr / concentration at 3 hr / concentration at 6 hr / concentration at 24 hr: female, athymic nude (CD-1 nu/nu), mouse, brain, read-out: HSP90 Compounds in Mouse Brain
[2] = test system: A549 orthotopic lung tumor; test: Efficacy study in A549 orthotopic lung tumor model; assay type: in vivo, nude mice; conditions: Compound-15 120 mg/kg orally once every two days, erlotinib 50 mg/kg orally once a day, 4 wk
[3] = test system: H1975 orthotopic lung tumor; test: Efficacy study in the H1975 orthotopic lung tumor (NSCLC) model; assay type: in vivo, nude mice; conditions: Compound-15 120 mg/kg orally once every two days, erlotinib 50 mg/kg orally once a day, 5 wk
Procedure: Dose-dependent efficacy study of Compound-15 in H1975 orthotopic lung tumor model (n=11): Mice were treated with Compound-15 (20, 40, 80, and 120 mg/kg) starting 4 day after tumor implantation.

H1975 intracranial tumor = test: Efficacy study in H1975 intracranial metastasis model; assay type: in vivo, nude mice; conditions: Compound-15 120 mg/kg orally once every two days, lapatinib 75 mg/kg orally twice a day, 4 wk

Row | IC50 (HSP90) [nM] | concentration at 0 hr [1] [ng/g] | concentration at 0.5 hr [1] [ng/g] | concentration at 1 hr [1] [ng/g] | concentration at 3 hr [1] [ng/g] | concentration at 6 hr [1] [ng/g] | concentration at 24 hr [1] [ng/g] | AUC in mouse brain [1] [ng·h/g] | Structure (SMILES) | also measured
1 | 100 to 1000 | – | – | – | – | – | – | – | CC(C)(C)CNCCCn1c(Sc2cc3c(cc2Br)OCO3)nc2c(N)nccc21 [Compound 10] | –
2 | 100 to 1000 | – | – | – | – | – | – | – | CC(C)(C)CNCCCn1c(Sc2cc3c(cc2I)OCO3)nc2c(N)nccc21 [Compound 11, 2-(6-iodobenzo[d][1,3]dioxol-5-ylthio)-1-(3-(neopentylamino)propyl)-1H-imidazo[4,5-c]pyridin-4-amine] | –
3 | – | 0 | 2.5 | 2.2 | 3.7 | 0.9 | 1.3 | 36.7 | NC(=O)CCCn1c(Sc2cc3c(cc2I)OCO3)nc2c(N)nccc21 [Compound 22] | –
4 | – | 0 | 5.4 | 13.6 | 21.5 | 9.1 | 3 | 231.8 | CC(C)(C)CNCCn1c(Sc2cc3c(cc2S(C)(=O)=O)OCO3)nc2c(N)nccc21 [Compound 23] | –
5 | – | – | – | – | – | – | – | – | C#Cc1cccc(Nc2ncnc3cc(OCCOC)c(OCCOC)cc23)c1 [erlotinib, reference compound] | animal survival [2]: no antitumor effect; animal survival [3]: no therapeutic benefit
6 | – | – | – | – | – | – | – | – | CS(=O)(=O)CCNCc1ccc(-c2ccc3ncnc(Nc4ccc(OCc5cccc(F)c5)c(Cl)c4)c3c2)o1 [lapatinib, reference compound] | animal survival (H1975 intracranial tumor): lack of lapatinib efficacy
